Experimental data taken from US20130240456A1, “DEVICE AND METHOD FOR LABEL-FREE SEPARATION OF MATERIAL USING MAGNETIC FIELD” (THE GOVERNING COUNCIL OF THE UNIVERSITY OF TORONTO, priority 2012, published 2013).

Legend:
myoglobin [1] = molecular target: myoglobin (Mus musculus, UniProt P04247); settings: 2.5 mM NaNO2, ratio of absorbance 635 nm/525 nm
Experimental: (§1) UV-vis measurements were made in cells lysed with NP40 Lysis Buffer, for 30 min on ice, with cell debris spun down at 13000 rpm for 10 min at 4° C. […] ND-1000 Nanodrop spectrophotometer (from Nanodrop Technologies, Inc., Wilmington, Del., USA) was used to collect absorption spectra from 200-700 nm.

myoglobin [2] = molecular target: myoglobin (Rattus norvegicus, UniProt Q9QZ76)
Sequence of myoglobin (Rattus norvegicus, UniProt Q9QZ76) (Q9QZ76 whole entry): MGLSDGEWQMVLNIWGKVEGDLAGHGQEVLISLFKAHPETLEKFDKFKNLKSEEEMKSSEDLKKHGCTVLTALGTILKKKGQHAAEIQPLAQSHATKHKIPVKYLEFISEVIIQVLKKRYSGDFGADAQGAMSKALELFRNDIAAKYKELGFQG
Experimental: as §1

neonatal rat CM [3] = settings: horizontal device study
Experimental: Cell viability was determined immediately after treatment. In addition, the cells were cultivated in 3D for 7 days as described below.
Live/dead staining was performed by incubating the cells or constructs in a solution of carboxyfluorescein diacetate-succinimidyl ester (CFDA-SE, 10 μM, from Molecular Probes) and propidium iodide (PI, 2.5 μg/mL, from Molecular Probes) for 30-45 minutes at 37° C., according to the manufacturer's protocol (from Molecular Probes, Burlington, Canada). The cells were imaged using a fluorescent microscope (Leica DMIRE2, from Wetzlar, Germany). […] Following treatment, the cells were washed in HBSS, and incubated for 5 hrs in 37° C./5% CO2 incubator. Non-viable cells with compromised cell membranes could be identified by red fluorescence due to binding of PI to their nuclei, while viable cells converted CFDA-SE to the green fluorescent dye […] by esterase-mediated cleavage.
Live/dead staining was performed by incubating the cells or constructs in a solution of carboxyfluorescein diacetate-succinimidyl ester (CFDA-SE, 10 μM, from Molecular Probes) and propidium iodide (PI, 2.5 μg/mL, from Molecular Probes) for 30-45 minutes at 37° C., according to the manufacturer's protocol (from Molecular Probes, Burlington, Canada). The cells were imaged using a fluorescent microscope (Leica DMIRE2, from Wetzlar, Germany). […]

neonatal rat CM [4] = settings: constructs of treated and control cells, no significant differences
Experimental: Contractile properties of CMs were measured by field stimulation in an electrical stimulation chamber consisting of two parallel carbon electrodes spaced 1 cm apart as described in [24]. Stimulation was provided by an external electric stimulator (Grass s88x). Using monophasic pulses of 2 ms duration and frequency of 1 pulse per second, the excitation threshold (minimum voltage at which synchronous contractions of 75% of the tissue in the field of view can be observed) was first determined. Then the maximum capture rate (maximum beating frequency) was determined at 200% of the determined excitation threshold voltage.

adult mouse CM = settings: 2.5 mM NaNO2, versus untreated, unseparated control
Experimental: Adult mouse CMs were isolated and suspended in Kraft Bruhe (KB) solution at 4° C. The KB solution consisted of 120 mM K-glutamate, 10 mM KCl, 10 mM KH2PO4, 2 mM MgSO4.7H2O, 10 mM Taurine, 5 mM Creatine, 10 mM HEPES, 10 mM Glucose, 0.5 mM EGTA, 0.10% Bovine Serum Albumin (BSA) and a final pH of 7.3 adjusted with KOH. The adult mouse CMs in KB solution were then split into three groups. Each of these three KB solutions containing adult mouse CMs was then further split into four groups; in total, 12 groups of adult mouse CMs in KB solution were maintained at 4° C. and allowed to settle to the bottom of Eppendorf tubes.
The Eppendorf containing KB Solution and adult mouse CMs was left untouched. The other three Eppendorf tubes had the KB solution removed. […] The four Eppendorf tubes were then returned to 4° C. environment to allow the cells settle.
The other three Eppendorf tubes containing adult mouse CMs in the three other solutions were left at room temperature while the device was running.
At the end of the sorting process, each of the Eppendorf tubes that had been sitting at room temperature were equally split into 24-well plate wells. The sorted run was emptied into one well. An equal volume of trypan blue was added to each well. After a minute, 1 mL of either KB or HBSS and 30% FBS was added to each of the wells depending on the group. […]

Sequence of myoglobin (Mus musculus, UniProt P04247) (P04247 whole entry): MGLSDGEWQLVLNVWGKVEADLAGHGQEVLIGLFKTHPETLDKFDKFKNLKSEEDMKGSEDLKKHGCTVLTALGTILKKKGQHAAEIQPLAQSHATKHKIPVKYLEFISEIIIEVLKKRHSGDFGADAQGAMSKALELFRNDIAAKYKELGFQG

With `O=NO` [NaNO2, sodium nitrite] the “time of maximum metmyoglobin induction after nitrite was introduced” value (myoglobin [1]) was “about 45 min”, the “conversion of Mb to metMb” value (myoglobin [2]; 50 mM NaNO2, 30 min, referencing to the 1 hr time point) was 92±3.5% and the “time at which metMb induction reached the equilibrium value” (myoglobin [2]; 50 mM NaNO2, transient study) was 30 min. The “semi-quantitative fold conversion to metMb” value (myoglobin [2]; 50 mM NaNO2, transient study, stabilized value) was “about 10 times the initial metMb amount”, the “viability of CMs after treatment with NaNO2 (FIGS. 23A and 23B)” value (neonatal rat CM [3]) was “unaffected” and the “excitation threshold (ET)” value (neonatal rat CM [4]) was “about 4.5±1.3 V/cm”. The “maximum capture rate (MCR)” value (neonatal rat CM [4]) was “about 8.3±1.0 pps” and the “viability of adult mouse CM after separation and subsequent culture for 24 hr” value (adult mouse CM) was “not compromised”.
